These are literature values, as cited in US20120093797A1, “COMBINED USE OF CREATINE PHOSPHATE AND CREATINE PHOSPHOKINASE FOR TREATMENT OF ARTERIOSCLEROSIS” (ARTCELL INVEST LTD., priority 2009, published 2012).

Structures are written as SMILES.

Take `CN(CC(=O)O)C(=N)NP(=O)(O)O` [CP, 2-[(amino-phosphonoimino-methyl)-methyl-amino]acetic acid]: the “Half-life of CP” value was 4 to 7 min.
